# From US20250340560A1, “SUBSTITUTED PYRAZOLO[1,5-a]PYRIMIDINES AS BRUTON'S TYROSINE KINASE MODULATORS” (BEIGENE SWITZERLAND GMBH, priority 2013, published 2025)
# Structures can show the parent of a compound that is named as a salt.
# Target: Recombinant Btk (Homo sapiens (Human), UniProt Q06187)
# Experiment: BTK kinase assay (TR-FRET)
# Conditions: read-out: IC50 (nM) Btk; 1 hour pre-incubation, ATP at Km
# Chain of Recombinant Btk (Q06187 whole entry): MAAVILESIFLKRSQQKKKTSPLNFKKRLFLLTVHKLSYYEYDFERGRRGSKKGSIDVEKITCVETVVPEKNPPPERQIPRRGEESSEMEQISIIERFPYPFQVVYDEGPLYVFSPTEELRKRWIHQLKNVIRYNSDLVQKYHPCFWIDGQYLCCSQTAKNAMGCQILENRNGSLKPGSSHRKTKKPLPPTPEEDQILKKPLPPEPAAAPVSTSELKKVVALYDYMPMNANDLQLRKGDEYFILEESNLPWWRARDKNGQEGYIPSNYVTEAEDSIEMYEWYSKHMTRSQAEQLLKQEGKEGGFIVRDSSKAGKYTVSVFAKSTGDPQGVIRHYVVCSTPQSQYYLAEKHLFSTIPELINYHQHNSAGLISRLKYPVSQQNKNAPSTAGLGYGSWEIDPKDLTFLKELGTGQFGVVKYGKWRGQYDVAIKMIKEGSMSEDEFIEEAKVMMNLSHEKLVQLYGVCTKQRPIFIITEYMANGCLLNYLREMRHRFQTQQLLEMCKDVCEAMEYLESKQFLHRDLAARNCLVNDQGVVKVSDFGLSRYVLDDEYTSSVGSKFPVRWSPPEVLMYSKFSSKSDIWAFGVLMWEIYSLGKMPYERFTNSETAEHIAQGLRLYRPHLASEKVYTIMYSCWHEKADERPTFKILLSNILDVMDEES
row,SMILES,IC50 [nM]
1,"CC(=O)N1CCc2[nH]c3c(C(N)=O)c(-c4ccc(Oc5ccccc5)cc4)nn3c2C1 [Compound 55, 7-Acetyl-2-(4-phenoxyphenyl)-5,6,7,8-tetrahydro-4H-pyrazolo[5′,1′:2,3]imidazo [4,5-c]pyridine-3-carboxamide]",82
2,"N#CCC(=O)N1CCc2[nH]c3c(C(N)=O)c(-c4ccc(Oc5ccccc5)cc4)nn3c2C1 [Compound 56, 7-(2-Cyanoacetyl)-2-(4-phenoxyphenyl)-5,6,7,8-tetrahydro-4H-pyrazolo[5′,1′:2,3]imidazo[4,5-c]pyridine-3-carboxamide]",110
3,"CN(C)CCC(=O)N1CCc2[nH]c3c(C(N)=O)c(-c4ccc(Oc5ccccc5)cc4)nn3c2C1 [Compound 57, 7-(3-(Dimethylamino)propanoyl)-2-(4-phenoxyphenyl)-5,6,7,8-tetrahydro-4H-pyrazolo[5′,1′:2,3]imidazo[4,5-c]pyridine-3-carboxamide trifluoroacetate]",37
4,"CC=CC(=O)N1CCc2[nH]c3c(C(N)=O)c(-c4ccc(Oc5ccccc5)cc4)nn3c2C1 [Compound 58, 7-(But-2-enoyl)-2-(4-phenoxyphenyl)-5,6,7,8-tetrahydro-4H-pyrazolo [5′,1′:2,3]imidazo[4,5-c]pyridine-3-carboxamide]",0.43
5,"NC(=O)c1c(-c2ccc(Oc3ccccc3)cc2)nn2c1[nH]c1cnccc12 [Compound 61, 2-(4-Phenoxyphenyl)-4H-pyrazolo[1′,5′:1,2]imidazo[4,5-c]pyridine-3-carboxamide]",140
6,"NC(=O)c1c(-c2ccc(Oc3ccccc3)cc2)nn2c3c([nH]c12)CNCC3 [Compound 62, 2-(4-Phenoxyphenyl)-5,6,7,8-tetrahydro-4H-pyrazolo[1′,5′:1,2]imidazo [4,5-c]pyridine-3-carboxamide]",240
7,"CN(C)C/C=C/C(=O)N1CCc2c([nH]c3c(C(N)=O)c(-c4ccc(Oc5ccccc5)cc4)nn23)C1 [Compound 64, (E)-6-(4-(Dimethylamino)but-2-enoyl)-2-(4-phenoxyphenyl)-5,6,7,8-tetrahydro-4H-pyrazolo[1′,5′:1,2]imidazo[4,5-c]pyridine-3-carboxamide trifluoroacetate]",0.17
8,"NC(=O)c1c(-c2ccc(Oc3ccccc3)cc2)nn2c1[nH]c1ccc([N+](=O)[O-])cc12 [Compound 65, 7-Nitro-2-(4-phenoxyphenyl)-4H-benzo[4,5]imidazo[1,2-b]pyrazole-3-carboxamide]",320
9,"NC(=O)c1c(-c2ccc(Oc3ccccc3)cc2)nn2c1NCc1ccc(N)cc1-2 [Compound 68, 8-Amino-2-(4-phenoxyphenyl)-4,5-dihydropyrazolo[1,5-a]quinazoline-3-carboxamide]",190
10,"C=CC(=O)Nc1ccc2c(c1)-n1nc(-c3ccc(Oc4ccccc4)cc3)c(C(N)=O)c1NC2 [Compound 69, 8-Acrylamido-2-(4-phenoxyphenyl)-4,5-dihydropyrazolo[1,5-a]quinazoline-3-carboxamide]",7.8
11,"NC(=O)c1c(-c2ccc(Oc3ccccc3)cc2)nn2c1NCCc1cc([N+](=O)[O-])ccc1-2 [Compound 70, 8-Nitro-2-(4-phenoxyphenyl)-5,6-dihydro-4H-benzo[f]pyrazolo[1,5-a][1,3]diazepine-3-carboxamide]",19
12,"NC(=O)c1c(-c2ccc(Oc3ccccc3)cc2)nn2c1NCCc1cc(N)ccc1-2 [Compound 71, 8-Amino-2-(4-phenoxyphenyl)-5,6-dihydro-4H-benzo[f]pyrazolo[1,5-a][1,3]diazepine-3-carboxamide]",55
13,"NC(=O)c1c(-c2ccc(Oc3ccccc3)cc2)nn2c1NC(=O)Cc1cc([N+](=O)[O-])ccc1-2 [Compound 73, 8-Nitro-5-oxo-2-(4-phenoxyphenyl)-5,6-dihydro-4H-benzo[f]pyrazolo[1,5-a][1,3]diazepine-3-carboxamide]",> 10000
14,"NC(=O)c1c(-c2ccc(Oc3ccccc3)cc2)nn2c1NC(=O)Cc1cc(N)ccc1-2 [Compound 74, 8-Amino-5-oxo-2-(4-phenoxyphenyl)-5,6-dihydro-4H-benzo[f]pyrazolo[1,5-a][1,3]diazepine-3-carboxamide]",240
15,"C=CC(=O)Nc1ccc2c(c1)CC(=O)Nc1c(C(N)=O)c(-c3ccc(Oc4ccccc4)cc3)nn1-2 [Compound 75, 8-Acrylamido-5-oxo-2-(4-phenoxyphenyl)-5,6-dihydro-4H-benzo[f]pyrazolo[1,5-a][1,3]diazepine-3-carboxamide]",41
16,"NC(=O)c1c(-c2ccc(Oc3ccccc3)cc2)nn2c1[nH]c(=O)c1cc([N+](=O)[O-])ccc12 [Compound 76, 7-Nitro-5-oxo-2-(4-phenoxyphenyl)-4,5-dihydropyrazolo[1,5-a]quinazoline-3-carboxamide]",5500
17,"NC(=O)c1c(-c2ccc(Oc3ccccc3)cc2)nn2c1[nH]c(=O)c1cc(N)ccc12 [Compound 77, 7-Amino-5-oxo-2-(4-phenoxyphenyl)-4,5-dihydropyrazolo[1,5-a]quinazoline-3-carboxamide]",480
18,"C=CC(=O)Nc1ccc2c(c1)c(=O)[nH]c1c(C(N)=O)c(-c3ccc(Oc4ccccc4)cc3)nn12 [Compound 78, 7-Acrylamido-5-oxo-2-(4-phenoxyphenyl)-4,5-dihydropyrazolo[1,5-a]quinazoline-3-carboxamide]",21

row,SMILES,IC50 [nM]
1,"NC(=O)c1c(-c2ccc(Oc3ccccc3)cc2)nn2c1[nH]c(=O)c1ccc(N)cc12 [Compound 79, 8-Amino-5-oxo-2-(4-phenoxyphenyl)-4,5-dihydropyrazolo[1,5-a]quinazoline-3-carboxamide]",50
2,"NC(=O)c1c(-c2ccc(Oc3ccccc3)cc2)nn2c(C3CCNCC3)cc(=O)[nH]c12 [Compound 80, 5-Oxo-2-(4-phenoxyphenyl)-7-(piperidin-4-yl)-4,5-dihydropyrazolo[1,5-a]pyrimidine-3-carboxamide]",> 10000
3,C=CC(=O)N1CCC(c2cc(=O)[nH]c3c(C(N)=O)c(-c4ccc(Oc5ccccc5)cc4)nn23)CC1 [Compound 81],5900
4,"NC(=O)c1c(-c2ccc(Oc3ccccc3)cc2)nn2c1NC(=O)C21CCNCC1 [Compound 82, 2-Oxo-6-(4-phenoxyphenyl)-1,2-dihydrospiro[imidazo[1,2-b]pyrazole-3,4′-piperidine]-7-carboxamide]",3100
5,"C=CC(=O)N1CCC2(CC1)C(=O)Nc1c(C(N)=O)c(-c3ccc(Oc4ccccc4)cc3)nn12 [Compound 83, 1′-Acryloyl-2-oxo-6-(4-phenoxyphenyl)-1,2-dihydrospiro[imidazo[1,2-b]pyrazole-3,4′-piperidine]-7-carboxamide]",130
6,"NC(=O)c1c(-c2ccc(Oc3ccccc3)cc2)nn2c1NCC(N)C2 (stereo not drawn) [Compound 84, 6-Amino-2-(4-phenoxyphenyl)-4,5,6,7-tetrahydropyrazolo[1,5-a]pyrimidine-3-carboxamide]",2900
7,"C=CC(=O)NC1CNc2c(C(N)=O)c(-c3ccc(Oc4ccccc4)cc3)nn2C1 (stereo not drawn) [Compound 85, 6-Acrylamido-2-(4-phenoxyphenyl)-4,5,6,7-tetrahydropyrazolo[1,5-a]pyrimidine-3-carboxamide]",32
8,"C=CC(=O)NCC1CNc2c(C(N)=O)c(-c3ccc(Oc4ccccc4)cc3)nn2C1 (stereo not drawn) [Compound 86, 6-(Acrylamidomethyl)-2-(4-phenoxyphenyl)-4,5,6,7-tetrahydropyrazolo[1,5-a]pyrimidine-3-carboxamide]",2.2
9,"NC(=O)c1c(-c2ccc(Oc3ccccc3)cc2)nn2c1NCC1(CNC1)C2 [Compound 87, 2′-(4-Phenoxyphenyl)-5′,7′-dihydro-4′H-spiro[azetidine-3,6′-pyrazolo[1,5-a]pyrimidine]-3′-carboxamide]",2000
10,"C=CC(=O)N1CC2(CNc3c(C(N)=O)c(-c4ccc(Oc5ccccc5)cc4)nn3C2)C1 [Compound 88, 1-Acryloyl-2′-(4-phenoxyphenyl)-5′,7′-dihydro-4′H-spiro[azetidine-3,6′-pyrazolo[1,5-a]pyrimidine]-3′-carboxamide]",16
11,"NC(=O)c1c(-c2ccc(Oc3ccccc3)cc2)nn2c1NCC(c1ccccc1N)C2 (stereo not drawn) [Compound 89, 6-(2-Aminophenyl)-2-(4-phenoxyphenyl)-4,5,6,7-tetrahydropyrazolo[1,5-a]pyrimidine-3-carboxamide]",> 10000
12,"NC(=O)c1c(-c2ccc(Oc3ccccc3)cc2)nn2c1NCC(c1cccc(N)c1)C2 (stereo not drawn) [Compound 90, 6-(3-Aminophenyl)-2-(4-phenoxyphenyl)-4,5,6,7-tetrahydropyrazolo[1,5-a]pyrimidine-3-carboxamide]",1900
13,"CN(C)CCOc1cccc(C2CNc3c(C(N)=O)c(-c4ccc(Oc5ccccc5)cc4)nn3C2)c1 (stereo not drawn) [Compound 91, 6-(3-(2-(Dimethylamino)ethoxy)phenyl)-2-(4-phenoxyphenyl)-4,5,6,7-tetrahydropyrazolo[1,5-a]pyrimidine-3-carboxamide]",1900
14,"CN(C)C/C=C/C(=O)Nc1ccccc1C1CCNc2c(C(N)=O)c(-c3ccc(Oc4ccccc4)cc3)nn21 (stereo not drawn) [Compound 92, (E)-7-(2-(4-(dimethylamino)but-2-enamido)phenyl)-2-(4-phenoxyphenyl)-4,5,6,7-tetrahydropyrazolo[1,5-a]pyrimidine-3-carboxamide]",1.1
15,"COc1ccc(-c2nn3c(c2C(N)=O)NCCC3c2ccccc2N)cc1 (stereo not drawn) [Compound 93, 7-(2-Aminophenyl)-2-(4-methoxyphenyl)-4,5,6,7-tetrahydropyrazolo[1,5-a]pyrimidine-3-carboxamide]",1500
16,"NC(=O)c1c(-c2ccc(Oc3ccccc3)cc2)nn2c1NCCC2c1cc(N)ccc1Cl (stereo not drawn) [Compound 95, 7-(5-amino-2-chlorophenyl)-2-(4-phenoxyphenyl)-4,5,6,7-tetrahydropyrazolo[1,5-a]pyrimidine-3-carboxamide]",470
17,"C=CC(=O)Nc1ccc(Cl)c(C2CCNc3c(C(N)=O)c(-c4ccc(Oc5ccccc5)cc4)nn32)c1 (stereo not drawn) [Compound 96, 7-(5-acrylamido-2-chlorophenyl)-2-(4-phenoxyphenyl)-4,5,6,7-tetrahydropyrazolo[1,5-a]pyrimidine-3-carboxamide]",30
18,"C=CC(=O)Nc1cc(C2CCNc3c(C(N)=O)c(-c4ccc(Oc5ccccc5)cc4)nn32)ccc1Cl (stereo not drawn) [Compound 97, 7-(3-acrylamido-4-chlorophenyl)-2-(4-phenoxyphenyl)-4,5,6,7-tetrahydropyrazolo[1,5-a]pyrimidine-3-carboxamide]",1.1
